Laboratory results: patent publication US12491229B2, “Stabilized peptide composition” (Shionogi & Co., Ltd., priority 2014, dated 2025)
Values belong to the sequence of their own block, whether it stands above or below them. Ends that are not written are not given here.

Tests used:
Type in all cases: physicochemical
[1] = Solubility study 2 of each peptide against pH (white turbidity on decreasing pH); set-up: key: ∘: dissolution; x: white turbidity; conditions: peptide 1.5 mg/g, pH decreased gradually with hydrochloride solution
Procedure: As shown in the study 1 described above, when the peptide was mixed directly with water for injection, the bulk was formed, and it was difficult to dissolve the bulk. So, solubility of peptides was evaluated thermodynamically by dissolving the peptide completely once with high pH, and decreasing the solution pH gradually to check pH when white turbidity was observed.
The peptide described as SEQ ID NO: 1 or SEQ ID NO: 2 was dissolved into the solution with pH10 and solubility was examined by decreasing the solution pH in each. 15 mg of the peptide described as SEQ ID NO: 1 or SEQ ID NO: 2 was mixed with water, 0.1 mol/L sodium hydroxide solution was added for dissolution, and pH was adjusted to 10. Peptide concentration was adjusted to 1.5 mg/g. In each sample solution, hydrochloride solution was added to decrease pH gradually, and the appearance of the solution was checked.

[2] = Solution stability of each peptide against pH; conditions: for stability in the solution state: conclusion from studies on stability in solution with different pH
Procedure: Content and related substances were measured in accordance with the method of liquid chromatography described in general test section in Japan Pharmacopeia. To prepare the test sample, water for injection was added to the lyophilized sample, and each peptide concentration was adjusted to 0.12 mg/mL. Peak area of each peptide in the sample and the one in each standard of the drug substance were obtained, and content was calculated from dilution ratio and ratio of peak area in the sample to one in each standard described below. Residual of the content in the stability test was against the content at the time when the lyophilized sample was prepared. Related substances were calculated by ratio of peak area of the target related substance to all related substances and drug substances in each sample solution. The level of increase of the related substances was evaluated by the difference from the related substance at the moment when the lyophilized sample was prepared.
Standard solution for measuring content of the peptide described as SEQ ID NO: 1 or SEQ ID NO: 2 was prepared in each by dissolving the peptide described above into 1.6 mg/mL phosphate solution and by adjusting each peptide concentration into 0.15 mg/mL. Standard solution for measuring content of the peptide described as SEQ ID NO: 3, SEQ ID NO: 4 or SEQ ID NO: 5 was prepared in each by dissolving the peptide described above into 12.1 mg/mL of 2-amnino-2-hydroxymethyl-1,3-propanediol aqueous solution and by adjusting each peptide concentration to 0.15 mg/mL. For the stationary phase of the liquid chromatography, column with octadecyl group was used, and the measurement was performed by gradient elution method. Flow rate in the measurement was set to 1.0 mL/min.
Stability of the peptide described as SEQ ID NOs: 1-5 was evaluated in each.
The sample solution prepared with the compositions above was stored for 6 hours at 25° C. Then, the level of increase of related substances derived from the peptides described as SEQ ID NO: 1, SEQ ID NO: 2 or SEQ ID NO: 3 was measured in each, and residual of the peptides described as SEQ ID NO: 4 or SEQ ID NO: 5 was measured in each. The analytical procedure for the related substances and peptide contents was described above.

[3] = Solubility study 1 of each peptide against solution pH; conditions: pH 2-12, peptide mixed at 3 mg/mL in water for injection adjusted with hydrochloride or sodium hydroxide solution; FIG. 1
Procedure: Solubility of the peptides described as SEQ ID NOs: 1-5 was evaluated with the condition of pH 2-12. Hydrochloride solution or sodium hydroxide solution was added to water for injection to adjust pH, and each peptide was mixed with the adjusted solution, where the peptide concentration was set to 3 mg/mL. The mixed solution was filtered, the filtered solution was diluted with 10-20 parts of water for injection, and peak area of each peptide was obtained by liquid chromatography (same test procedure described above). From peak area of each peptide, dilution ratio of the filtered solution, peak area and concentration of each standard solution described above, peptide concentration was obtained.

- Solution state ([1]; pH 5): x
- Solution state ([1]; pH 5.5): ∘
- Solution state ([1]; pH 7): ∘
- Solution state ([1]; pH 8): ∘
- Solution state ([1]; pH 9): ∘
- Solution state ([1]; pH 10): ∘
- stability in the solution state [2]: poor stability
Sequence: IYNEYIYDL [SEQ ID NO: 2, IYNEYIYDL]
- Solubility of each peptide against pH [3]: decreased with decreasing pH of the solution

Sequence: RYCNLEGPPI (listed as Homo sapiens) [SEQ ID NO: 3, peptide derived from URLC10 protein]
- stability in the solution state [2]: poor stability
- level of increase of related substances derived from the peptide ([2]; five-peptide solution (Table 2) pH 8-11 stored for 6 hours at 25° C., FIGS. 2-1 to 2-3): increased and solution stability decreased, when solution pH was 10.0-11.0

- Solution state ([1]; pH 5.4): x
- Solution state ([1]; pH 5.6): ∘
- Solution state ([1]; pH 6): ∘
- Solution state ([1]; pH 6.6): ∘
- Solution state ([1]; pH 7.9): ∘
- Solution state ([1]; pH 10): ∘
- stability in the solution state [2]: good stability
Sequence: EYYELFVNI [SEQ ID NO: 1, EYYELFVNI]
- Solubility of each peptide against pH [3]: decreased with decreasing pH of the solution

Sequence: KTVNELQNL (listed as Homo sapiens) [SEQ ID NO: 5, peptide derived from KOC1 protein]
- stability in the solution state [2]: poor stability
- residual of the peptide ([2]; five-peptide solution (Table 2) pH 8-11 stored for 6 hours at 25° C., FIGS. 2-4, 2-5): prominently decreased and solution stability decreased with increasing solution pH

- stability in the solution state [2]: good stability
- Solubility of each peptide against pH [3]: low when solution pH was around neutral
Sequence: VYGIRLEHF [SEQ ID NO: 4, VYGIRLEHF]
